Entries after “also recorded” stand apart in the source; their conditions may differ.
How the values were obtained:
hESCs (H9 cells) = experiment: Neural tube-like (NTL) structure formation by hESC colonies grown on HS27 fibroblasts; assay type: cell-based, human; conditions: for NTL structures observed: MK applied together with FGF-2, or MK replaced by the factor
Method: To confirm that increased MK levels correlate with differentiation, EBs from hESCs and HS27-iPSCs were generated and quantitatively analyzed MK expression. […] To test if exogenously added MK may display neural-inducing activities, hESCs were cultured in the presence of recombinant MK protein using two different assays. First, manually passaged hESCs (H9 cells) were plated on HS27 fibroblasts and grown in the presence of 100 ng/mL MK. […] These NTLs expressed the typical neuroectodermal markers PAX6 and Nestin (FIG. 1d) and, when single NTLs were manually picked under microscopic guidance and attached to laminin-coated dishes, neuronal cells started migrating out from these structures (FIG. 9). […] Second, MK-induced differentiation was investigated under feeder-free conditions. Manually passaged H9-hESCs cells were plated on Matrigel and grown in 100 ng/mL MK for 6 days.
Human ESC lines H1, H9, H14, BG02, HSF-6, and HUES13 were cultured on matrigel (BD) or Geltrex (Invitrogen) in the presence of MEF-CM (DMEM/F12, 20% Knockout Serum Replacement, non-essential amino acids, 2-mercaptoethanol). In some experiments, hESCs and iPSCs were cultured in mTeSR medium (Stem Cell Technologies). Neural cells were grown in N2B27 supplement (Gibco). The following reagents were used: MK (Millipore), FGF-2 (NIH/NCI), BDNF (Peprotech), GDNF (Peprotech), FGF-8 (Peprotech), SHH (Peprotech and R&D Systems), Noggin (Peprotech), IGF-1 (Peprotech), DLL1, DLL4, Jagged1 (R&D), all-trans RA (Sigma), Forskolin (Sigma), A 81-01 (Tocris), Dorsomorphin (Sigma), PNU-74654 (Sigma), Rapamycin (Sigma), LY294002 (Tocris), U0126 (Tocris).
Cells were fixed with 4% paraformaldehyde and stained with following antibodies: anti-mouse OCT-4 (1:200, Santa Cruz, C-10), rabbit Nanog (1:200, Santa Cruz, H-155), mouse TRA 1-81 (1:200, Millipore), alpha-Fetoprotein (1:50, Santa Cruz, AFP-11), goat MK (1:100, R&D Systems), goat SOX17 (1:100, R&D), goat Brachyury (1:100, R&D), PAX6 (1:300, Covance), mouse and rabbit Tuj1 (1:500, Covance), goat OTX2 (1:1000, Neuromics), mouse Nestin (1:400, Millipore), rabbit OLIG2 (1:50, Santa Cruz, H-68), mouse HB9 (1:50, 81.5C10, Developmental Studies Hybridoma Bank), rabbit GFAP (1:1000, DAKO), rabbit and sheep TH (1:500, Pel-Freez), rabbit PTPz (1:50, Santa Cruz), goat ALK (1:50, Santa Cruz). Light-microscopic immunostaining for PAX6 with the DAB method was performed according to the manufacturer (Vector).

H9 hESCs = experiment: Feeder-free neural induction on Matrigel, PAX6/Nestin by FACS and immunostaining; assay type: cell-based, human; conditions: for total H9 hESCs differentiated into PAX6+/Nestin+ cells (FACS): 10 μM inhibitor together with 100 ng/mL MK+DAP
ERK1/2 = experiment: Western blot of phospho-ERK1/2 (MAPK pathway); assay type: cell-based, human; conditions: 100 ng/mL, 24 hr
Source text: (§1) The signal transduction pathway(s) involved in this highly efficient neural conversion was addressed. The PI3K/MAPK pathways were focused on since MK-induced activation of both pathways has been reported (Kadomatsu et al. Cancer Lett. 204:127-143, 2004; Stoica et al. JBC 277:35990-35998, 2002). Since both pathways are already active in undifferentiated hESCs and necessary for their growth (Bendall et al. Nature 448:1015-1021, 2007; Vallier et al. J. Cell. Sci. 118:4495-4509, 2005; Xu et al. Nat. Methods 2:185-190, 2005), cells were exposed to high concentrations (100 ng/mL) of MK, IGF-1, and FGF-2 for 24 hr and phosphorylation levels of AKT and ERK1/2 were compared (FIG. 4a).
(§2) Cell lysates were prepared in RIPA buffer containing protease and phosphatase inhibitors (Pierce). 4-12% gradient gels (NuPage) were used with Invitrogen's SureLock Mini-Cell and gel-to-membrane transfer was performed with the XCell Blot Module (Invitrogen). The following primary antibodies were used: goat MK (R&D), mouse and rabbit GAPDH (1:1000, Santa Cruz), p-AKT 5473 and total AKT (1:1000, Cell Signaling Technologies), phospho-ERK1/2 and total ERK1/2 (1:1000, Cell Signaling Technologies). The following secondary antibodies were used: donkey anti-mouse Alexa 680 (Invitrogen), donkey anti-rabbit Alexa 680, donkey anti-rabit 800 (Rockland), donkey anti-mouse 800. Western Blots were imaged using the Odyssey Infrared Imaging System (LI-COR).

ALK 5, 4, 7 = conditions: Tojo et al. 2005; cited from earlier work
AKT = experiment: Western blot of AKT phosphorylation at Serine 473 (PI3K pathway); assay type: cell-based, human; conditions: 100 ng/mL, 24 hr
Source text: as §1
as §2, with “Western Blots were imaged using the Odyssey Infrared Imaging System (LI-COR).” left out

In the case of Jagged1: Notch ligand (R&D), the NTL structures observed (hESCs (H9 cells)) is reported as “never observed”.

For `O=c1cc(N2CCOCC2)oc2c(-c3ccccc3)cccc12` [LY294002], the “total H9 hESCs differentiated into PAX6+/Nestin+ cells (FACS)” value (H9 hESCs) was ~95%.

With `N#CC(=C(/N)Sc1ccccc1N)/C(C#N)=C(\N)Sc1ccccc1N` [U0126] the “total H9 hESCs differentiated into PAX6+/Nestin+ cells (FACS)” value (H9 hESCs) was ~95% and the “PAX6 expression / neuralization in MK+DAP-treated hESC cultures” value (H9 hESCs; 40 μM inhibitor together with 100 ng/mL MK+DAP) was “dramatically reduced; also recorded: disruption of neuralization”.

In the case of delta-like 4: Notch ligand (R&D), the NTL structures observed (hESCs (H9 cells)) is reported as “never observed”.

With “FGF-2: fibroblast growth factor 2 (NIH/NCI)” the “MAPK activation (ERK1/2 phosphorylation level)” value (“MAPK activation” for short) (ERK1/2) was “significantly stronger activation”.

In the case of `Cc1cccc(-c2nn(C(=S)Nc3ccccc3)cc2-c2ccnc3ccccc23)n1` [A81-01], the “potency relative to SB431542 (another inhibitor of ALK 5, 4, 7)” value (ALK 5, 4, 7) is listed as “more potent”.

With “IGF-1: insulin-like growth factor 1 (Peprotech)” the “signaling through PI3K pathway (phosphorylation level of AKT)” value (AKT) was “signal through both the PI3K pathway and the MAPK pathway”, the “MAPK activation” value (ERK1/2) was “moderate level” and the NTL structures observed (hESCs (H9 cells)) was “never observed”.

B1: delta-like 1: Notch ligand (R&D) (protein, UniProt O00548 18-723, looked up)
Delta-like protein 1: QVWSSGVFELKLQEFVNKKGLLGNRNCCRGGAGPPPCACRTFFRVCLKHYQASVSPEPPCTYGSAVTPVLGVDSFSLPDGGGADSAFSNPIRFPFGFTWPGTFSLIIEALHTDSPDDLATENPERLISRLATQRHLTVGEEWSQDLHSSGRTDLKYSYRFVCDEHYYGEGCSVFCRPRDDAFGHFTCGERGEKVCNPGWKGPYCTEPICLPGCDEQHGFCDKPGECKCRVGWQGRYCDECIRYPGCLHGTCQQPWQCNCQEGWGGLFCNQDLNYCTHHKPCKNGATCTNTGQGSYTCSCRPGYTGATCELGIDECDPSPCKNGGSCTDLENSYSCTCPPGFYGKICELSAMTCADGPCFNGGRCSDSPDGGYSCRCPVGYSGFNCEKKIDYCSSSPCSNGAKCVDLGDAYLCRCQAGFSGRHCDDNVDDCASSPCANGGTCRDGVNDFSCTCPPGYTGRNCSAPVSRCEHAPCHNGATCHERGHRYVCECARGYGGPNCQFLLPELPPGPAVVDLTEKLEGQGGPFPWVAVCAGVILVLMLLLGCAAVVVCVRLRLQKHRPPADPCRGETETMNNLANCQREKDISVSIIGATQIKNTNKKADFHGDHSADKNGFKARYPAVDYNLVQDLKGDDTAVRDAHSKRDTKCQPQGSSGEEKGTPTTLRGGEASERKRPDSGCSTSKDTKYQSVYVISEEKDECVIATEV
In the case of B1, the NTL structures observed (hESCs (H9 cells)) is reported as “never observed”.

B2: MK: 13-kDa cysteine-rich secreted heparin-binding growth and differentiation factor; recombinant protein (Millipore) (protein, UniProt P21741 21-143, looked up)
Midkine: VAKKKDKVKKGGPGSECAEWAWGPCTPSSKDCGVGFREGTCGAQTQRIRCRVPCNWKKEFGADCKYKFENWGACDGGTGTKVRQGTLKKARYNAQCQETIRVTKPCTPKTKAKAKAKKGKGKD
In the case of B2, the “total cells differentiated into PAX6+ cells” value (H9 hESCs; 100 ng/mL MK alone, Matrigel, feeder-free, 6 days, FACS and immunostainings) is reported as 20-40%, the “signaling through PI3K pathway (phosphorylation level of AKT)” value (AKT) is reported as “signal through both the PI3K pathway and the MAPK pathway” and the “MAPK activation” value (ERK1/2) is reported as “moderate level”. The “solitary growing hESC colonies directly differentiated into neural tube-like (NTL) structures” value (hESCs (H9 cells); 100 ng/mL MK, within 6-8 days) was 5-10%.

B3: Noggin: BMP antagonist, recombinant protein (Peprotech) (protein, UniProt Q13253 28-232, looked up)
Noggin: QHYLHIRPAPSDNLPLVDLIEHPDPIFDPKEKDLNETLLRSLLGGHYDPGFMATSPPEDRPGGGGGAAGGAEDLAELDQLLRQRPSGAMPSEIKGLEFSEGLAQGKKQRLSKKLRRKLQMWLWSQTFCPVLYAWNDLGSRFWPRYVKVGSCFSKRSCSVPEGMVCKPSKSVHLTVLRWRCQRRGGQRCGWIPIQYPIISECKCSC
In the case of B3, the NTL structures observed (hESCs (H9 cells)) is reported as “never observed”.

From patent US20110002897A1, “DIRECTED DIFFERENTIATION OF STEM CELLS” (Burnham Institute for Medical Research, priority 2009, published 2011)
